Reference: PMC6792352, “Limited Chemical Structural Diversity Found to Modulate Thyroid Hormone Receptor in the Tox21 Chemical Library” (Environmental Health Perspectives, 2019)
Where a name gives a salt, the structure may show the parent alone.

What was measured:
[1] = tested on: thyroid hormone receptor (endogenous TRα and TRβ); assay: GH3-TRE-Ag primary qHTS, luciferase reporter, agonist mode (TOX21_TR_LUC_GH3_Agonist, aeid 803); assay type: cell-based, rat
[2] = tested on: thyroid hormone receptor (endogenous TRα and TRβ); assay: GH3-TRE-Antag primary qHTS, luciferase reporter, antagonist mode with 1 nM T3 (TOX21_TR_LUC_GH3_Antagonist, aeid 804); assay type: cell-based, rat
[3] = in vitro; conditions: rat
[4] = tested on: Tox21 cell viability assays (different cell types); assay: Global cytotoxicity: eighteen Tox21 cell viability assays; assay type: cell-based
[5] = tested on: GH3-TRE-Luc cell line
[6] = in vitro; conditions: rat, gh3-tre-luc cells, AC50 (uM) modified / 1000
[7] = tested on: GH3-TRE-Luc cell line; assay: GH3-TRE-Via cell viability, CellTiter-Fluor (TOX21_TR_LUC_GH3_Antagonist_viability, aeid 805); conditions: Table S2, aeid 805
[8] = Global cytotoxicity: eighteen Tox21 cell viability assays; assay type: cell-based
[9] = antagonist candidates, inactive samples arbitrarily set to AC50=1,000 μM, read-out: GH3-TRE-Ag AC50
[10] = antagonist mode, 1 nM T3, read-out: GH3-TRE-Antag AC50

Row | AC50 at 24 h [3] [µM] | AC50 [5] [µM] | SMILES | AC50 [1, 9] [µM] | AC50 [2, 10] [µM] | AC50 [4] [µM] | Active in global cytotoxicity assays (%) [4] [%] | CC50 at 24 h [6] [µM] | further results
1 | 2.15 |  | CCOC(=O)C1=C(COCCN)NC(C)=C(C(=O)OC)C1c1ccccc1Cl (stereo not shown) [Amlodipine besylate, reference compound] | > 92 | 4.56 |  |  |  | 
2 |  | 8.8 | N=C1C=CC(=C(c2ccc(N)cc2)c2ccc(N)cc2)C=C1 [C.I. Basic Red 9 monohydrochloride] | > 92 | 5.15 | 24.2 | 66.7 | 8.8 | 
3 |  | > 50 | O=C(CO)[C@@H](O)[C@H](O)[C@@H](O)C(=O)O [Calcium 5-ketogluconate] |  |  |  |  | > 50 | modl_tp (top asymptote for the winning model) ([1]; Table S2, aeid 803): 2.81 percent_activity; resp_max (maximum response value) ([1]; Table S2, aeid 803, per sample): 2.734 percent_activity; hitc ([1]; Table S2, aeid 803, tcpl hit call): 0; hitc_modified ([1]; Table S2, aeid 803, final hitc after manual review): 0; AC50 ([1]; Table S2, aeid 803, inactive set to 1000, read-out: AC50 (uM) modified): > 50 µM; hitc ([2]; Table S2, aeid 804): 0; hitc_modified ([2]; Table S2, aeid 804): 0; resp_max (maximum response value) ([2]; Table S2, aeid 804): 6.735 percent_activity; AC50 ([2]; Table S2, aeid 804, inactive set to 1000, read-out: AC50 (uM) modified): > 50 µM; hitc [5]: 0; hitc_modified [5]: 0; resp_max (maximum response value) [7]: 18.832 percent_activity
4 |  | 9.06 | COC(=O)C1=C(C)NC(C)=C(C(=O)OCCN2CCN(C(c3ccccc3)c3ccccc3)CC2)C1c1cccc([N+](=O)[O-])c1 (stereo not shown) [Manidipine dihydrochloride] | > 92 | 7.4 | 18.6 | 28.8 | 9.06 | 
5 | 24.4 |  | CC[C@H]1OC(=O)C[C@@H](O)[C@H](C)[C@@H](O[C@@H]2O[C@H](C)C[C@H](N(C)C)[C@H]2O)[C@@H](CC=O)C[C@@H](C)C(=O)/C=C/[C@]2(C)O[C@H]2[C@@H]1C [Rosaramicin] | > 92 |  |  | 46.7 | 22.9 | AC50 [8]: 26.8 µM

Row | SMILES | AC50 at 24 h [3] [µM] | AC50 [5] [µM] | AC50 [1, 9] [µM] | AC50 [2, 10] [µM] | AC50 [4] [µM] | Active in global cytotoxicity assays (%) [4] [%] | CC50 at 24 h [6] [µM] | further results
6 | CNCC[C@H](Oc1cccc2ccccc12)c1cccs1 [Duloxetine hydrochloride, reference compound] | 5.69 |  |  |  |  |  |  | AC50 ([1]; read-out: GH3-TRE-Ag AC50): > 92 µM; AC50 ([2]; read-out: GH3-TRE-Antag AC50, antagonist mode, 1 nM T3): 6.22 µM
